According to PMC10287695, “Non-covalent inhibitors of thioredoxin glutathione reductase with schistosomicidal activity in vivo” (Nature Communications, 2023):
Where “and” joins values, the source holds several entries; their conditions need not be identical. Equal values may be shown once.

How the values were obtained:
Human GR = molecular target: T1, Human GR (Homo sapiens, UniProt P00390); experiment: Human GR enzyme inhibition (GSSG reduction, NADPH oxidation); type: biochemical; conditions: 66.7 µM
T1 construct: made in house
T1 sequence (P00390 44-522): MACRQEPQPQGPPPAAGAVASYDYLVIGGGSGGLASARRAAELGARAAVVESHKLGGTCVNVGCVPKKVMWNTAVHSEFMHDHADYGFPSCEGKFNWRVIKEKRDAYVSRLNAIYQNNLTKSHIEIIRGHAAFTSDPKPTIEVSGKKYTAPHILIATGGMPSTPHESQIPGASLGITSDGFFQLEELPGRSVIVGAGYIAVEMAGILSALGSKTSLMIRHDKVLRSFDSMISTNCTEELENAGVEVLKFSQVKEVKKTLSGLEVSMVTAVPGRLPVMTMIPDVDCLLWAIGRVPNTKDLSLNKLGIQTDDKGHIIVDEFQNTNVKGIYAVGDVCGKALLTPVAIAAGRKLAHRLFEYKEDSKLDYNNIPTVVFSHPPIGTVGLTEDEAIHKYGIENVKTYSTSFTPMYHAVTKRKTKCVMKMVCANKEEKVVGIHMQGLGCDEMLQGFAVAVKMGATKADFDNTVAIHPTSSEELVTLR
Description: Recombinant TGR, human TrxR1, B. malayi (Bm)TrxR and human GR proteins were expressed and purified as described[20],[69],[79]. The codon optimized sequence for P. falciparum (PfTrxR, https://www.ncbi.nlm.nih.gov/protein/CAA60574.1/) with an N-terminal 6-His tag was synthesized and inserted into pET15b (GenScript) and expressed in BL21 (DE3) cells and purified as described for human GR[20]. TGR and TrxR enzyme inhibition assays were performed in triplicate at 25 °C as described[20] in 0.1 M potassium phosphate (pH 7.4), 10 mM EDTA, 100 µM NADPH and 0.01% Tween-20. TGR, human TrxR1 and BmTrxR (all at 4 nM) and PfTrxR (50 nM) were preincubated with the compounds for 15 min. The reaction was started with addition of an equal volume of DTNB (6 mM) and NADPH (100 µM) and the increase in A412 during the first 3 min was recorded. […] […] Activity was initiated with the addition of 1 mM GSSG and 100 μM NADPH and initial rates of NADPH oxidation were monitored at 340 nm. The reactions were done in triplicate. The IC50 was calculated in GraphPad Prism.

BmTrxR = BmTrxR (Brugia malayi, UniProt A0A1I9G0T9); experiment: B. malayi TrxR enzyme inhibition; type: biochemical
Sequence of BmTrxR (A0A1I9G0T9 entry or part of it, added parts left off): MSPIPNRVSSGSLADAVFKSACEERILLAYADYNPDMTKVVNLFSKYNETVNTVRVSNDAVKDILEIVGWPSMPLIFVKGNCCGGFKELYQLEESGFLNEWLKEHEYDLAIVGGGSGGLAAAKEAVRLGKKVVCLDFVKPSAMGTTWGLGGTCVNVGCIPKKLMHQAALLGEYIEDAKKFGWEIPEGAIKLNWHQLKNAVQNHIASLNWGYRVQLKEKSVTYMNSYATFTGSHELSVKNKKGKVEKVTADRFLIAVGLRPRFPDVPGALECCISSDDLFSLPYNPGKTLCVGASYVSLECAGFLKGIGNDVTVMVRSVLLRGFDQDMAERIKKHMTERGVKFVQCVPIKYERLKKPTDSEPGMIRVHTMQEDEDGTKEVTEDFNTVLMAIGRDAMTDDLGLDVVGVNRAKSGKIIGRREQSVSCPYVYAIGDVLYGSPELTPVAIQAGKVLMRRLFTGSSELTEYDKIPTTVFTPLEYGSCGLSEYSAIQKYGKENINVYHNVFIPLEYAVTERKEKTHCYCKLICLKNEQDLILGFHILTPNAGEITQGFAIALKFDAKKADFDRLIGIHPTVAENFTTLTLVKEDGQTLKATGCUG
Description: Recombinant TGR, human TrxR1, B. malayi (Bm)TrxR and human GR proteins were expressed and purified as described[20],[69],[79]. The codon optimized sequence for P. falciparum (PfTrxR, https://www.ncbi.nlm.nih.gov/protein/CAA60574.1/) with an N-terminal 6-His tag was synthesized and inserted into pET15b (GenScript) and expressed in BL21 (DE3) cells and purified as described for human GR[20]. […] The reaction was started with addition of an equal volume of DTNB (6 mM) and NADPH (100 µM) and the increase in A412 during the first 3 min was recorded. […] Activity was initiated with the addition of 1 mM GSSG and 100 μM NADPH and initial rates of NADPH oxidation were monitored at 340 nm. The reactions were done in triplicate. The IC50 was calculated in GraphPad Prism.

PfTrxR = molecular target: T2, PfTrxR (Plasmodium falciparum, UniProt Q25861); experiment: P. falciparum TrxR enzyme inhibition; type: biochemical
T2 construct: 6-His (N); made in house; host or cells: E. coli BL21 (DE3)
T2 sequence (Q25861 1-541): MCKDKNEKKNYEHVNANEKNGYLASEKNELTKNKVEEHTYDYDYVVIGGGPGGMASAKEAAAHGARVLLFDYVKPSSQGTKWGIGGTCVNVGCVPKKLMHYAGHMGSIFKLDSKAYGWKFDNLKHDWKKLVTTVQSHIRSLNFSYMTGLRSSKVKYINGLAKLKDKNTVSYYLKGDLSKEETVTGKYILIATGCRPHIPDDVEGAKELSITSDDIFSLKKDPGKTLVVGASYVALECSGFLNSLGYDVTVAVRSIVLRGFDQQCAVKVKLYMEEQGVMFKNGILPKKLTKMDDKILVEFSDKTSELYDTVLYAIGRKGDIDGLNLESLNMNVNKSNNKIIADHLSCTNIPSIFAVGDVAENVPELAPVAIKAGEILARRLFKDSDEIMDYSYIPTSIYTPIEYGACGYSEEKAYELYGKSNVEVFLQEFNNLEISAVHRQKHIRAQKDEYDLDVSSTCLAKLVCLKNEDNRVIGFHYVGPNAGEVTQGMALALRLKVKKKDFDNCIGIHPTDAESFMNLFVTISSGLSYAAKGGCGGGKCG
Description: Recombinant TGR, human TrxR1, B. malayi (Bm)TrxR and human GR proteins were expressed and purified as described[20],[69],[79]. The codon optimized sequence for P. falciparum (PfTrxR, https://www.ncbi.nlm.nih.gov/protein/CAA60574.1/) with an N-terminal 6-His tag was synthesized and inserted into pET15b (GenScript) and expressed in BL21 (DE3) cells and purified as described for human GR[20]. TGR and TrxR enzyme inhibition assays were performed in triplicate at 25 °C as described[20] in 0.1 M potassium phosphate (pH 7.4), 10 mM EDTA, 100 µM NADPH and 0.01% Tween-20. TGR, human TrxR1 and BmTrxR (all at 4 nM) and PfTrxR (50 nM) were preincubated with the compounds for 15 min. The reaction was started with addition of an equal volume of DTNB (6 mM) and NADPH (100 µM) and the increase in A412 during the first 3 min was recorded. […] The reaction was preincubated for 15 min. Activity was initiated with the addition of 1 mM GSSG and 100 μM NADPH and initial rates of NADPH oxidation were monitored at 340 nm. The reactions were done in triplicate. The IC50 was calculated in GraphPad Prism.

S. mansoni adult worms = experiment: GSH/GSSG ratio in ex vivo adult worms; type: cell-based; conditions: 1 hr; second data set (r136-144), baseline 63.5617, DMSO 63.4928
Description: We assessed GSH/GSSG levels experimentally by treating S. mansoni adult worms with 50 µM of compounds, or respective controls 5 µM Auranofin, 50 µM PZQ or 50 µM MZM and 0.01% DMSO for 3 h. Worm homogenate was prepared by washing three times with PBS to remove residual compounds and ten volumes of ice cold 5% sulfosalicylic acid was added. Worms were manually homogenized on ice using VWR Pellet Mixer Adaptor. The worm suspension was centrifuged at 14000 × g, 4 °C for 10 min and the acid supernatants transferred. An equal volume of ice-cold neutralization buffer (500 mM HEPES, pH 8.0) was added to the acid supernatants.
GSH/GSSG assay was performed by diluting the acid supernatant (5-fold) with ice-cold dilution buffer (250 mM HEPES, pH 7.5). Using white opaque luminescence plate on ice, 25 µl of the diluted worm acid supernatant was added each well in triplicates. Total glutathione lysis reagent and GSSG lysis reagent, which contains alkylating agent N-ethylmaleimide (25 mM) were prepared following manufactures protocol and added to respective wells along with blank for background. Total glutathione lysis reagent or oxidized glutathione lysis reagent (25 µl) was added to respective wells containing worm acid supernatants and the plate was shaken for 5 min. Luciferin generation reagent (LGR) (50 µl) was added to all wells, briefly shaken and incubated at room temperature for 30 min. Luciferin detection reagent (LDR) (100 µl) was added to all wells, briefly shaken and incubated for 15 min at room temperature and the luminescence measured using microplate imager (BioTek Cytation3). GSH/GSSH ratio for DMSO control and compounds were calculated using (Net DMSO total glutathione RFU) – (Net DMSO GSSG RFU)/ (Net DMSO GSSG RFU)/2 and (Net inhibitor total glutathione RFU) – (Net inhibitor GSSG RFU)/ (Net inhibitor GSSG RFU)/2 respectively.

TGR [1] = molecular target: T3, TGR (Schistosoma mansoni, UniProt Q962Y6); experiment: Reversibility by jump dilution; type: biochemical
T3 construct: made in house
T3 sequence (Q962Y6 1-598): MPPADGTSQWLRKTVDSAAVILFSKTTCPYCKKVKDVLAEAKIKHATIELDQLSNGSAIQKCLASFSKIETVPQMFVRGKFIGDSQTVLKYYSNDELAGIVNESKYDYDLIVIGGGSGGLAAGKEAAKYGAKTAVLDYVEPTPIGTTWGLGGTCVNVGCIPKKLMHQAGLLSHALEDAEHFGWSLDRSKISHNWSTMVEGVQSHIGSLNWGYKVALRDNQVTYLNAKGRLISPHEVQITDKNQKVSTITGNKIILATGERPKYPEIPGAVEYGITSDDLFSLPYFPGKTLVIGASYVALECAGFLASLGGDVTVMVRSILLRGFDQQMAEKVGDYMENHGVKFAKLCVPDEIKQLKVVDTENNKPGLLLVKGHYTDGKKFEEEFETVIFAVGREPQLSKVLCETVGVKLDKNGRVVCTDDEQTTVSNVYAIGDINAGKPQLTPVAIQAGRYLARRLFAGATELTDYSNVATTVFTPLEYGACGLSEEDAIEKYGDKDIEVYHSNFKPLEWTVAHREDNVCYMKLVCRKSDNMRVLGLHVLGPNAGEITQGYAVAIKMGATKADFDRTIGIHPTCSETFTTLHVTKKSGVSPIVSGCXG
Description: A reaction of 370 nM TGR, 100 µM NADPH, and 250 µM inhibitor was incubated for 15 min at room temperature. A 100x dilution of the reaction was made and the activity was determined immediately and after 60 min.

TGR [2] = molecular target: T4, TGR (Schistosoma mansoni, UniProt Q962Y6, X597U); experiment: NADPH consumption (oxidase activity); type: biochemical, S. mansoni
T4 construct: made in house
Description: TRi-1, Stattic (both at 50 µM) and AF (20 µM) were incubated with 1 ml of 500 nM TGR and 100 µM NADPH in TGR reaction buffer for 30 min. The samples were desalted using a Zeba spin desalting column (Thermo Fisher Scientific) and 100 µl of the desalted sample was combined with 100 µl of 100 µM NADPH. NADPH consumption was monitored at 340 nm in triplicate. Compounds 1, 4, 6, and 7 (50 µM) were tested in the same fashion without the desalting step and with a first incubation step of 30 min for 6 and 7 and 2 h for 1 and 4.

TGR [3] = molecular target: T4, TGR; experiment: Superoxide production (pyrogallol red); type: biochemical, S. mansoni; conditions: replicates
Description: The production of superoxide by TGR was determined by monitoring reaction of superoxide with pyrogallol red[80]. Briefly, a 1 ml reaction mix (500 nM TGR, 100 µM NADPH, and 20–50 µM inhibitor) was incubated at room temperature for 30 min for fast inhibitors, or 2 h for slow inhibitors. For irreversible inhibitor controls TRi-1 (synthesized in house as reported[45]), Stattic (Cayman Chemical), and AF (Cayman Chemical), the samples were desalted using a Zeba spin desalting column. 100 µL of sample was combined with pyrogallol buffer with and without superoxide dismutase (SOD) (50 µM pyrogallol red, 300 µM NADPH; ± 10 units SOD). The reaction was measured at A340 and A540 simultaneously for 2 h.

[4] = D0: diluted 1:100, activity determined immediately, list for plotting
[5] = D60: diluted 1:100, activity determined after 60 min, list for plotting

C[C@@H]1[C@H]2C[C@@H](C[C@H]1NC(=O)Cc1nc3ccccc3n1C1CCCCC1)C2(C)C [Compound 10]
Human GR (inhibition at 66.7 µM) (Human GR): n.i. | inhibition at 1 µM (BmTrxR; BmTrxR, 1 µM compound, mean of 3 replicates): 27.9% | inhibition at 5 µM (BmTrxR; BmTrxR, 5 µM compound, mean of 3 replicates): 68% | inhibition at 15 µM (BmTrxR; BmTrxR, 15 µM compound, mean of 3 replicates): 100% | inhibition at 30 µM (BmTrxR; BmTrxR, 30 µM compound, mean of 3 replicates): 108% | inhibition at 66.7 µM (BmTrxR; BmTrxR, 66.7 µM compound, mean of 3 replicates): 106% | IC50 (BmTrxR; read-out: BmTrxR IC50): 2.5 µM | IC50 (PfTrxR): 32.9 ± 4.46 µM | inhibition at 1 µM (PfTrxR): 3.2% | inhibition at 5 µM (PfTrxR): 6.15% | inhibition at 15 µM (PfTrxR): 29.7% | inhibition at 30 µM (PfTrxR): 48.5% | inhibition at 66.7 µM (PfTrxR): 66.9% | Ratio GSH/GSSG (S. mansoni adult worms): 63.3816

O=[N+]([O-])c1ccc2c(c1)S(=O)(=O)C=C2 [Stattic, reference compound]
reversibility of TGR inhibition (TGR [1]; 250 µM inhibitor, 100-fold jump dilution): irreversible | % Activity (ID list), D0 (TGR [1]; [4]): 1.1% and 0.9% and -0.249% | % Inhibition (ID list), D0 (TGR [1]; [4]): 98.9% and 99.1% and 100.2% | % Activity (ID list), D60 (TGR [1]; [5]): -0.15% and 2.9% and 1.8% | % Inhibition (ID list), D60 (TGR [1]; [5]): 100.1% and 97.1% and 98.2% | % Activity, 0 min (TGR [1]; [0, D0]: 15 min preincubation inhibitor + TGR + NADPH, diluted 1:100, then activity determined immediately, relative to DMSO): 1.12% and 0.8821% and -0.2494% | % Activity, 60 min (TGR [1]; [60, D60]: 15 min preincubation inhibitor + TGR + NADPH, diluted 1:100, then activity determined after 60 min, relative to DMSO): -0.1498% and 2.864% and 1.829% | Inhibitor (rate), -15 (TGR [1]; [-15]: 15 min preincubation inhibitor + TGR + NADPH, then activity determined, raw rate, replicates): 0.0007 and 0.0003 and -0.0004 | % Activity, -15 (TGR [1]; [-15]: 15 min preincubation inhibitor + TGR + NADPH, then activity determined, relative to DMSO, replicates): 1.077% and 0.4412% and -0.5874% | % Inhibition (ID list) (TGR [1]; before dilution (-15), list for plotting): 100.5% and 100.0% and 98.7% | NADPH consumption by TGR after exposure (TGR [2]): converted TGR to a pro-oxidant enzyme | NADPH consumption (rate/ΔOD340) (TGR [2]; replicates): -0.002179 and -0.002159 and -0.002209 | Superoxide production, Pyrogallol red consumption monitored ΔA540 (TGR [3]; condition not given): -0.005958 and -0.005844 and -0.006065 | Superoxide production, Pyrogallol red consumption monitored ΔA540 (TGR [3]; second of the two columns per substance (condition not given)): -6.328e-5 and -6.968e-5 and -6.397e-5
